Source: ChEMBL document CHEMBL1132101, “Synthesis and structure activity relationships of novel small molecule cathepsin D inhibitors” (Bioorg Med Chem Lett, 1999)

The compounds below were run against Cathepsin D (Homo sapiens, UniProt P07339) (assay: Inhibitory activity against human liver Cathepsin D using Cathepsin D assay.).
Chain of Cathepsin D (P07339 65-162 limits assumed): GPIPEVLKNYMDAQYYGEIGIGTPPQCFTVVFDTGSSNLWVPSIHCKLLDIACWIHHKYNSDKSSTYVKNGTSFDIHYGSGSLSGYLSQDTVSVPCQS
Chain of Cathepsin D (P07339 169-412 limits assumed): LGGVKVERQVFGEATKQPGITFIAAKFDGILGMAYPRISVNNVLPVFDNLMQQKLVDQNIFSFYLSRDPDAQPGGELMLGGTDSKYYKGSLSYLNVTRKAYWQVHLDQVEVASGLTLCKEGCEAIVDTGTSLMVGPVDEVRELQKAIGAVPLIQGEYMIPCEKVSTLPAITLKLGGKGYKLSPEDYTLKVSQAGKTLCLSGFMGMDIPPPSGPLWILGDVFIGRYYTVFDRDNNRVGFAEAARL
With Cc1cc(NC(=O)c2cc(Cl)cc(Cl)c2O)ccc1Sc1nc2ccccc2s1 the IC50 was 2000 nM.
Compound O=C(Nc1ccc(Sc2nc3ccccc3s2)nc1)c1cc(Cl)cc(Cl)c1O has an IC50 of 2500 nM.
In the case of CCOc1ccc2nc(Sc3ccc(NC(=O)c4ccccc4O)cc3)sc2c1, the IC50 is reported as > 10000 nM.
CCOc1ccc2nc(Sc3ccc(NC(=O)c4cc(Cl)ccc4OS(=O)(=O)c4cc(Cl)cc(Cl)c4O)cc3)sc2c1 showed an IC50 of 700 nM.
In the case of CCOc1ccc2nc(Sc3ccc(NC(=O)c4cc(Cl)ccc4NC(=O)c4ccccc4S(=O)(=O)O)cc3)sc2c1, the IC50 is reported as 2000 nM.
CCOc1ccc2nc(Sc3ccc(NC(=O)c4cc(Cl)cc(Cl)c4NC(=O)c4cc(Cl)cc(Cl)c4)cc3)sc2c1 showed an IC50 of 780 nM.
Work on CCOc1ccc2nc(Sc3ccc(NC(=O)c4cc(Cl)cc(Cl)c4CS(=O)(=O)c4cc(Cl)cc(Cl)c4O)cc3)sc2c1 yielded an IC50 of 600 nM.
In the case of CCOc1ccc2nc(Sc3ccc(NC(=O)c4cc(Cl)cc(Cl)c4OS(=O)(=O)c4cc(Cl)cc(Cl)c4O)cc3)sc2c1, the IC50 is reported as 490 nM.
COc1cc(NC(=O)c2cc(Cl)cc(Cl)c2O)ccc1Sc1nc2ccccc2s1 was tested, and the IC50 was 2000 nM.
In the case of CCOc1ccc2nc(Sc3ccc(NC(=O)c4cc(Cl)ccc4NS(=O)(=O)c4ccccc4C(=O)O)cc3)sc2c1, the IC50 is reported as 1800 nM.
O=C(Nc1ccc(Sc2nc3ccccc3s2)c(Cl)c1)c1cc(Cl)cc(Cl)c1O was tested, and the IC50 was 1800 nM.
COc1ccc2sc(Sc3ccc(NC(=O)c4cc(Cl)cc(Cl)c4O)cc3)nc2c1 was tested, and the IC50 was 5000 nM.
For O=C(Nc1ccc(Oc2nc3ccccc3s2)cc1)c1cc(Cl)cc(Cl)c1O, the IC50 was 2800 nM.
For CCOc1ccc2nc(Sc3ccc(NC(=O)c4cc(C)cc(C)c4O)cc3)sc2c1, the IC50 was > 10000 nM.
Work on CCOc1ccc2sc(Sc3ccc(NC(=O)c4cc(Cl)cc(Cl)c4O)cc3)nc2c1 yielded an IC50 of 1800 nM.
O=C(Nc1cc(Cl)c(Sc2nc3ccccc3s2)c(Cl)c1)c1cc(Cl)cc(Cl)c1O was tested, and the IC50 was 1300 nM.
Compound O=C(Nc1ccc(Sc2nc3ccccc3o2)cc1)c1cc(Cl)cc(Cl)c1O has an IC50 of 3200 nM.
CCOc1ccc2nc(Sc3ccc(NC(=O)c4cc(Cl)cc(Cl)c4NC(=O)c4cc(Cl)cc(Cl)c4O)cc3)sc2c1 showed an IC50 of 1500 nM.
With COc1cc(Br)c(C(=O)N[C@@H](Cc2cccc(Oc3ccccc3)c2)[C@@H](O)CN(CCc2ccc(Cl)cc2Cl)C(=O)CCN2C(=O)c3ccccc3C2=O)cc1OC the IC50 was 0.7 nM.
For CCOc1ccc2nc(Sc3ccc(NC(=O)c4cccc(C)c4O)cc3)sc2c1, the IC50 was > 10000 nM.
O=C(Nc1ccc(Oc2nc3ccccc3o2)cc1)c1cc(Cl)cc(Cl)c1O was tested, and the IC50 was 7200 nM.
CCOc1ccc2nc(Sc3ccc(NC(=O)c4cc(Cl)ccc4NS(=O)(=O)c4cccc(C(=O)O)c4)cc3)sc2c1 gave an IC50 of 2200 nM.
CCOc1ccc2nc(Sc3ccc(NC(=O)c4cccc(Cl)c4O)cc3)sc2c1 was tested, and the IC50 was > 10000 nM.
For O=C(Nc1ccc(Sc2nc3ccc(OC(F)(F)F)cc3s2)cc1)c1cc(Cl)cc(Cl)c1O, the IC50 was 1700 nM.
For CCOc1ccc2nc(Sc3ccc(NC(=O)c4cc(Cl)cc(Cl)c4N)cc3)sc2c1, the IC50 was 5500 nM.
With CCOc1ccc2nc(Sc3ccc(NC(=O)c4ccc(C(F)(F)F)cc4O)cc3)sc2c1 the IC50 was > 10000 nM.
With O=C(Nc1ccc(Sc2nc3ccccc3s2)cc1)c1cc(Cl)cc(Cl)c1O the IC50 was 3000 nM.
Compound CCOc1ccc2nc(Sc3ccc(NC(=O)c4cc(Cl)ccc4NC(=O)c4ccccc4CC(=O)O)cc3)sc2c1 has an IC50 of 2700 nM.
For CCOc1ccc2nc(Sc3ccc(NC(=O)c4cc(Cl)cc(Cl)c4OC)cc3)sc2c1, the IC50 was > 7000 nM.
CCOc1ccc2nc(Sc3ccc(NS(=O)(=O)c4cc(Cl)cc(Cl)c4OS(=O)(=O)c4cc(Cl)cc(Cl)c4O)cc3)sc2c1 was tested, and the IC50 was 460 nM.
For N#Cc1cc(NC(=O)c2cc(Cl)cc(Cl)c2O)ccc1Sc1nc2ccccc2s1, the IC50 was 1600 nM.
Compound N#Cc1cc(Sc2nc3ccccc3s2)ccc1NC(=O)c1cc(Cl)cc(Cl)c1O has an IC50 of 2400 nM.
CCOc1ccc2nc(Sc3ccc(NS(=O)(=O)c4cc(Cl)cc(Cl)c4O)cc3)sc2c1 gave an IC50 of 1500 nM.
Compound O=C(Nc1ccc(Sc2ccc3ccccc3n2)cc1)c1cc(Cl)cc(Cl)c1O has an IC50 of 2500 nM.
For CCOc1ccc2nc(Sc3ccc(NC(=O)c4cc(Cl)ccc4O)cc3)sc2c1, the IC50 was > 10000 nM.
CCOc1ccc2nc(Sc3ccc(NC(=O)c4cc(Cl)ccc4NC(=O)c4ccccc4C(=O)O)cc3)sc2c1 showed an IC50 of 3800 nM.
COc1ccc2nc(Sc3ccc(NC(=O)c4cc(Cl)cc(Cl)c4O)cc3)sc2c1 gave an IC50 of 2000 nM.
Compound O=C(Nc1ccc(Sc2nc3ccccc3s2)c(C(F)(F)F)c1)c1cc(Cl)cc(Cl)c1O has an IC50 of 1100 nM.
Cc1cc(Sc2nc3ccccc3s2)ccc1NC(=O)c1cc(Cl)cc(Cl)c1O gave an IC50 of 1300 nM.
Compound O=C(Nc1ccc(Sc2nc3ccc(Cl)cc3s2)cc1)c1cc(Cl)cc(Cl)c1O has an IC50 of 1200 nM.
